Active and inactive are the calls of the source. The calls are words filed in the database; no cut-off is given here.

What all share (assay type): functional
In test [1] the test system is Leishmania donovani. Description: Antileishmanial activity against Leishmania donovani assessed as inhibition of promastigotes at 10 ug/ml.
Test [2] relates to Leishmania donovani. Description: Antileishmanial activity against Leishmania donovani assessed as inhibition of amastigotes at 10 ug/ml.
Test [3] has as its system Leishmania donovani. As to the kind of experiment: Antileishmanial activity against Leishmania donovani assessed as inhibition of amastigotes at 50 ug/ml.
Test [4] relates to Leishmania donovani. Description: Antileishmanial activity against Leishmania donovani assessed as inhibition of promastigotes at 0.5 ug/ml.

For the compound `COc1ccc(CCNC(=O)C(=O)c2c[nH]c3ccccc23)cc1`, in the test with Leishmania donovani [1], the inhibition at 10 µg/mL worked out at 68.5%.

In the case of `O=C(C(=O)N1CCOCC1)c1c[nH]c2ccccc12`, the inhibition at 10 µg/mL in the test with Leishmania donovani [2] was 78.1%; in the test with Leishmania donovani [1], 83.2%.

As to `O=C(NCc1ccccc1)C(=O)c1c[nH]c2ccccc12`, in the test on Leishmania donovani [1], the inhibition at 10 µg/mL came to 53.9%. Still for that read-out and setting: in the case of `CN1CCN(C(=O)C(=O)c2c[nH]c3ccccc23)CC1` it was 35.9%. On to `O=C(NCCc1c[nH]c2ccccc12)C(=O)c1c[nH]c2c(Cl)cccc12`, for which the inhibition at 10 µg/mL with Leishmania donovani [2] stood at 59.1%; in the test on Leishmania donovani [1], 99.1%. Take `O=C(NCCc1cn(S(=O)(=O)c2ccccc2)c2ccccc12)C(=O)c1cn(S(=O)(=O)c2ccccc2)c2ccccc12`: the inhibition at 10 µg/mL with Leishmania donovani [1] turned out to be 49%. On the same count and under the same terms, for `O=C(Nc1nc2ccccc2s1)C(=O)c1c[nH]c2ccccc12` the value was 18%.

In the case of `O=C(NCc1ccco1)C(=O)c1c[nH]c2ccccc12`, the outcome in the test on Leishmania donovani [2] was inactive. Besides, in the test with Leishmania donovani [1], the inhibition at 10 µg/mL came out at 99.2%.

With `O=C(Nc1ccc2[nH]ccc2c1)C(=O)c1c[nH]c2ccccc12`, the result in the test with Leishmania donovani [2] was Active. Further, the inhibition at 10 µg/mL with Leishmania donovani [1] is 93.7%. For `O=C(NCCc1c[nH]c2ccccc12)C(=O)c1c[nH]c2ccccc12`, the inhibition at 10 µg/mL with Leishmania donovani [2] worked out at 97.7%; in the test on Leishmania donovani [1], 100%. On to `O=C(NCCCn1ccnc1)C(=O)c1c[nH]c2ccccc12`, for which, in the test with Leishmania donovani [1], the inhibition at 10 µg/mL was 55.5%. On the same count and under the same terms, in the case of `O=C(NCCCN1CCOCC1)C(=O)c1c[nH]c2ccccc12` it was 73%; in that of `COc1ccc(CCNC(=O)C(=O)c2c[nH]c3ccccc23)cc1OC`, 78.2%. In the case of `N=C(N)c1ccc(OCCCCCOc2ccc(C(=N)N)cc2)cc1` [PENTAMIDINE], the inhibition at 50 µg/mL with Leishmania donovani [3] came to 90%. Also, the inhibition at 10 µg/mL in the test on Leishmania donovani [1] is 30%. Besides, the inhibition at 0.5 µg/mL in the test on Leishmania donovani [4] turned out to be 85%.

Regarding `Cn1cc(CCNC(=O)C(=O)c2cn(C)c3ccccc23)c2ccccc21`, the inhibition at 10 µg/mL in the test on Leishmania donovani [2] amounted to 97.8%; with Leishmania donovani [1] it was 99%. The corresponding values for `O=C(NCCc1c[nH]c2ccccc12)C(=O)c1c[nH]c2cc(Br)ccc12` are 75.1% and 99.2%. Turning to `N=C(N)NC(=O)C(=O)c1c[nH]c2ccccc12`, the inhibition at 10 µg/mL in the test on Leishmania donovani [1] came to 55%.

As usually defined, the inhibition is the share of the control response that was lost under treatment.

Source of the values: ChEMBL document CHEMBL1140023, “Synthesis of marine alkaloid: 8,9-dihydrocoscinamide B and its analogues as Novel class of antileishmanial agents” (2007).
